Test results: patent US12077503B2, “Substituted cyclic amides and their use as herbicides” (FMC CORPORATION, priority 2015, dated 2024)

Experiments:
Assay type in all cases: in vivo
Kochia (Kochia scoparia) [1] = test: Test A postemergence; settings: postemergence; for Kochia plant response rating: 125 g ai/ha, visual injury rating on 0 to 100 scale (0 no effect, 100 complete control), approx. 10 d; for Plant response rating, Kochia: 500 g ai/ha, 0 to 100 scale, 0 no effect, 100 complete control
In short: (§1)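 Seeds sprayed preemergence with a directed soil spray, or plants at 2 to 10 cm height and one- to two-leaf stage sprayed postemergence, with test chemicals in a non-phytotoxic solvent mixture containing surfactant, in loam soil–sand blend. Injury rated visually against untreated controls after about 10 d in greenhouse, 0 (no effect) to 100 (complete control).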

[2] = test system: wheat (Triticum aestivum); test: Test A postemergence; settings: postemergence; for Wheat plant response rating: 125 g ai/ha, visual injury rating on 0 to 100 scale (0 no effect, 100 complete control), approx. 10 d; for Plant response rating, Wheat: 500 g ai/ha, 0 to 100 scale, 0 no effect, 100 complete control
In short: as §1

[3] = test system: Galium (catchweed bedstraw, Galium aparine); test: Test A postemergence; settings: postemergence; for Galium plant response rating: 125 g ai/ha, visual injury rating on 0 to 100 scale (0 no effect, 100 complete control), approx. 10 d; for Plant response rating, Galium: 500 g ai/ha, 0 to 100 scale, 0 no effect, 100 complete control
In short: as §1

[4] = test system: ryegrass, Italian (Italian ryegrass, Lolium multiflorum); test: Test A postemergence; settings: postemergence; for Ryegrass, Italian plant response rating: 125 g ai/ha, visual injury rating on 0 to 100 scale (0 no effect, 100 complete control), approx. 10 d; for Plant response rating, Ryegrass, Italian: 500 g ai/ha, 0 to 100 scale, 0 no effect, 100 complete control
In short: as §1

corn (Zea mays) = test: Test A postemergence; settings: postemergence; for Corn plant response rating: 125 g ai/ha, visual injury rating on 0 to 100 scale (0 no effect, 100 complete control), approx. 10 d; for Plant response rating, Corn: 500 g ai/ha, 0 to 100 scale, 0 no effect, 100 complete control
In short: as §1

[5] = test system: pigweed (Amaranthus retroflexus); test: Test A postemergence; settings: postemergence; for Pigweed plant response rating: 125 g ai/ha, visual injury rating on 0 to 100 scale (0 no effect, 100 complete control), approx. 10 d; for Plant response rating, Pigweed: 500 g ai/ha, 0 to 100 scale, 0 no effect, 100 complete control
In short: as §1

[6] = test system: giant foxtail (Setaria faberii); test: Test A postemergence; settings: postemergence; for Foxtail, Giant plant response rating: 125 g ai/ha, visual injury rating on 0 to 100 scale (0 no effect, 100 complete control), approx. 10 d; for Plant response rating, Foxtail, Giant: 500 g ai/ha, 0 to 100 scale, 0 no effect, 100 complete control
In short: as §1

[7] = test system: ragweed (common ragweed, Ambrosia elatior); test: Test A postemergence; settings: postemergence; for Ragweed plant response rating: 125 g ai/ha, visual injury rating on 0 to 100 scale (0 no effect, 100 complete control), approx. 10 d; for Plant response rating, Ragweed: 500 g ai/ha, 0 to 100 scale, 0 no effect, 100 complete control
In short: as §1

[8] = test system: blackgrass (Alopecurus myosuroides); test: Test A postemergence; settings: postemergence; for Blackgrass plant response rating: 125 g ai/ha, visual injury rating on 0 to 100 scale (0 no effect, 100 complete control), approx. 10 d; for Plant response rating, Blackgrass: 500 g ai/ha, 0 to 100 scale, 0 no effect, 100 complete control
In short: as §1

[9] = test system: barnyardgrass (Echinochloa crus-galli); test: Test A postemergence; settings: postemergence; for Barnyardgrass plant response rating: 125 g ai/ha, visual injury rating on 0 to 100 scale (0 no effect, 100 complete control), approx. 10 d; for Plant response rating, Barnyardgrass: 500 g ai/ha, 0 to 100 scale, 0 no effect, 100 complete control
In short: as §1

Kochia (Kochia scoparia) [10] = test: Test A preemergence; settings: for Plant response rating, Kochia: 125 g ai/ha, preemergence, 0 to 100 scale (0 no effect, 100 complete control); for Kochia plant response rating (0 to 100 scale, 0 is no effect, 100 is complete control): Preemergence, 500 g ai/ha, visual injury approx. 10 d
In short: as §1

[11] = test system: ryegrass, Italian (Italian ryegrass, Lolium multiflorum); test: Test A preemergence; settings: for Plant response rating, Ryegrass, Italian: 125 g ai/ha, preemergence, 0 to 100 scale (0 no effect, 100 complete control); for Ryegrass, Italian plant response rating (0 to 100 scale, 0 is no effect, 100 is complete control): Preemergence, 500 g ai/ha, visual injury approx. 10 d
In short: as §1

[12] = test system: pigweed (Amaranthus retroflexus); test: Test A preemergence; settings: for Plant response rating, Pigweed: 125 g ai/ha, preemergence, 0 to 100 scale (0 no effect, 100 complete control); for Pigweed plant response rating (0 to 100 scale, 0 is no effect, 100 is complete control): Preemergence, 500 g ai/ha, visual injury approx. 10 d
[13] = test system: giant foxtail (Setaria faberii); test: Test A preemergence; settings: for Plant response rating, Foxtail, Giant: 125 g ai/ha, preemergence, 0 to 100 scale (0 no effect, 100 complete control); for Foxtail, Giant plant response rating (0 to 100 scale, 0 is no effect, 100 is complete control): Preemergence, 500 g ai/ha, visual injury approx. 10 d
In short: as §1

[14] = test system: ragweed (common ragweed, Ambrosia elatior); test: Test A preemergence; settings: for Plant response rating, Ragweed: 125 g ai/ha, preemergence, 0 to 100 scale (0 no effect, 100 complete control); for Ragweed plant response rating (0 to 100 scale, 0 is no effect, 100 is complete control): Preemergence, 500 g ai/ha, visual injury approx. 10 d
In short: as §1

[15] = test system: barnyardgrass (Echinochloa crus-galli); test: Test A preemergence; settings: for Plant response rating, Barnyardgrass: 125 g ai/ha, preemergence, 0 to 100 scale (0 no effect, 100 complete control); for Barnyardgrass plant response rating (0 to 100 scale, 0 is no effect, 100 is complete control): Preemergence, 500 g ai/ha, visual injury approx. 10 d
In short: as §1

[16] = test system: sedge, umbrella (small-flower umbrella sedge, Cyperus difformis); test: Test B flooded paddy test; settings: Flood, 250 g ai/ha; 0 to 100 scale where 0 is no effect and 100 is complete control; 13 to 15 d
In short: (§2)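 Flooding to 3 cm over soil accompanied treatment, which consisted of adding compound to the standing water around 2-leaf plants; depth was then maintained. Visual assessment versus controls followed at 13 to 15 d (scale 0–100, 0 meaning no effect).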

[17] = test system: ducksalad (Heteranthera limosa); test: Test B flooded paddy test; settings: Flood, 250 g ai/ha; 0 to 100 scale where 0 is no effect and 100 is complete control; 13 to 15 d
In short: as §2

rice (Oryra sativa) = test: Test B flooded paddy test; settings: Flood, 250 g ai/ha; 0 to 100 scale where 0 is no effect and 100 is complete control; 13 to 15 d
In short: as §2

[18] = test system: barnyardgrass (Echinochloa crus-galli); test: Test B flooded paddy test; settings: Flood, 250 g ai/ha; 0 to 100 scale where 0 is no effect and 100 is complete control; 13 to 15 d
In short: as §2

Row | Structure (SMILES) | Kochia plant response rating (Kochia (Kochia scoparia) [1]) | Plant response rating, Kochia (Kochia (Kochia scoparia) [1]) | Wheat plant response rating [2] | Plant response rating, Wheat [2] | Galium plant response rating [3] | Plant response rating, Galium [3] | Ryegrass, Italian plant response rating [4] | Plant response rating, Ryegrass, Italian [4] | Corn plant response rating (corn (Zea mays)) | Plant response rating, Corn (corn (Zea mays)) | Pigweed plant response rating [5] | Plant response rating, Pigweed [5] | Foxtail, Giant plant response rating [6] | Plant response rating, Foxtail, Giant [6] | Ragweed plant response rating [7] | Plant response rating, Ragweed [7] | Blackgrass plant response rating [8] | Plant response rating, Blackgrass [8] | Barnyardgrass plant response rating [9] | Plant response rating, Barnyardgrass [9] | further results
1 | Cc1c(F)ccc(NC(=O)C2C(=O)NCC2c2cc(F)cc(F)c2)c1F (stereo not drawn) [Compound 461] | 0 | 0 | 0 | 0 | 0 | 20 | 0 | 20 | 0 | 0 | 0 | 0 | 80 | 80 | 0 | 0 | 0 | 0 | 80 | 90 | Plant response rating, Kochia (Kochia (Kochia scoparia) [10]): 0; Kochia plant response rating (0 to 100 scale, 0 is no effect, 100 is complete control) (Kochia (Kochia scoparia) [10]): 50; Plant response rating, Ryegrass, Italian [11]: 20; Ryegrass, Italian plant response rating (0 to 100 scale, 0 is no effect, 100 is complete control) [11]: 20; Plant response rating, Pigweed [12]: 0; Pigweed plant response rating (0 to 100 scale, 0 is no effect, 100 is complete control) [12]: 0; Plant response rating, Foxtail, Giant [13]: 90; Foxtail, Giant plant response rating (0 to 100 scale, 0 is no effect, 100 is complete control) [13]: 90; Plant response rating, Ragweed [14]: 0; Ragweed plant response rating (0 to 100 scale, 0 is no effect, 100 is complete control) [14]: 0; Plant response rating, Barnyardgrass [15]: 70; Barnyardgrass plant response rating (0 to 100 scale, 0 is no effect, 100 is complete control) [15]: 90; Plant response rating, Sedge, Umbrella [16]: 0; Plant response rating, Ducksalad [17]: 100; Plant response rating, Rice (rice (Oryra sativa)): 0; Plant response rating, Barnyardgrass [18]: 60
2 | Cc1ccc(C2CNC(=O)C2C(=O)Nc2ccc(F)c(C)c2F)cc1F (stereo not drawn) [Compound 462] | 0 | 0 | 0 | 0 | 0 | 10 | 0 | 0 | 0 | 0 | 0 | 0 | 60 | 70 | 0 | 0 | 20 | 40 | 70 | 80 | Plant response rating, Kochia (Kochia (Kochia scoparia) [10]): 30; Kochia plant response rating (0 to 100 scale, 0 is no effect, 100 is complete control) (Kochia (Kochia scoparia) [10]): 70; Plant response rating, Ryegrass, Italian [11]: 0; Ryegrass, Italian plant response rating (0 to 100 scale, 0 is no effect, 100 is complete control) [11]: 0; Plant response rating, Pigweed [12]: 0; Pigweed plant response rating (0 to 100 scale, 0 is no effect, 100 is complete control) [12]: 0; Plant response rating, Foxtail, Giant [13]: 80; Foxtail, Giant plant response rating (0 to 100 scale, 0 is no effect, 100 is complete control) [13]: 90; Plant response rating, Ragweed [14]: 10; Ragweed plant response rating (0 to 100 scale, 0 is no effect, 100 is complete control) [14]: 50; Plant response rating, Barnyardgrass [15]: 80; Barnyardgrass plant response rating (0 to 100 scale, 0 is no effect, 100 is complete control) [15]: 90; Plant response rating, Sedge, Umbrella [16]: 0; Plant response rating, Ducksalad [17]: 85; Plant response rating, Rice (rice (Oryra sativa)): 0; Plant response rating, Barnyardgrass [18]: 40
